# Test results reported in ChEMBL document CHEMBL1147792, “Functional organisation and gain of activity: the case of the antibacterial tetra-para-guanidinoethyl-calix[4]arene” (Bioorg Med Chem Lett, 2006).
# Values joined by “and” are separate entries in the source; they are usually repeats but may differ in a detail not shown here. Equal values may be shown once. Active and inactive are the calls of the source. The calls are words filed in the database; no cut-off is given here.
# Key:
# [1] = test system: Enterococcus faecalis; test: Antibacterial activity against Enterococcus faecalis ATCC 29212 at 270 ug by disk diffusion method; format: functional
# [2] = test system: Staphylococcus aureus; test: Antibacterial activity against Staphylococcus aureus ATCC 25923; format: functional
# [3] = test system: Escherichia coli; test: Antibacterial activity against Escherichia coli ATCC 25922 at 34 ug by disk diffusion method; format: functional, organism-based
# [4] = test system: Escherichia coli; test: Antibacterial activity against Escherichia coli ATCC 25922; format: functional
# [5] = test system: Escherichia coli; test: Antibacterial activity against Escherichia coli ATCC 25922 at 270 ug by disk diffusion method; format: functional
# [6] = test system: Staphylococcus aureus; test: Antibacterial activity against Staphylococcus aureus ATCC 25923 at 34 ug by disk diffusion method; format: functional
# [7] = test system: Enterococcus faecalis; test: Antibacterial activity against Enterococcus faecalis ATCC 29212; format: functional
# [8] = test system: MRC5; test: Ratio of IC50 for viability of MRC5 cells after 48 to MIC for Staphylococcus aureus ATCC 25923; format: functional
# [9] = test system: Escherichia coli; test: Antibacterial activity against Escherichia coli ATCC 25922 at 67 ug by disk diffusion method; format: functional
# [10] = test system: MRC5; test: Viability of human MRC5 cells after 48 hrs; format: functional, cell-based; conditions: MRC5, 48 h
# [11] = test system: MRC5; test: Ratio of IC50 for viability of MRC5 cells after 48 to MIC for Enterococcus faecalis ATCC 29212; format: functional
# [12] = test system: Pseudomonas aeruginosa; test: Antibacterial activity against Pseudomonas aeruginosa ATCC 27853 at 34 ug by disk diffusion method; format: functional, organism-based
# [13] = test system: Staphylococcus aureus; test: Antibacterial activity against Staphylococcus aureus ATCC 25923 at 67 ug by disk diffusion method; format: functional
# [14] = test system: Enterococcus faecalis; test: Antibacterial activity against Enterococcus faecalis ATCC 29212 at 34 ug by disk diffusion method; format: functional, organism-based
# [15] = test system: Enterococcus faecalis; test: Antibacterial activity against Enterococcus faecalis ATCC 29212 at 67 ug by disk diffusion method; format: functional
# [16] = test system: MRC5; test: Ratio of IC50 for viability of MRC5 cells after 48 to MIC for Pseudomonas aeruginosa ATCC 27853; format: functional
# [17] = test system: MRC5; test: Ratio of IC50 for viability of MRC5 cells after 48 hrs to MIC for Escherichia coli ATCC 25922; format: functional
# [18] = test system: Staphylococcus aureus; test: Antibacterial activity against Staphylococcus aureus ATCC 25923 at 135 ug by disk diffusion method; format: functional
# [19] = test system: Enterococcus faecalis; test: Antibacterial activity against Enterococcus faecalis ATCC 29212 at 135 ug by disk diffusion method; format: functional
# [20] = test system: Escherichia coli; test: Antibacterial activity against Escherichia coli ATCC 25922 against at 135 ug by disk diffusion method; format: functional
# [21] = test system: Pseudomonas aeruginosa; test: Antibacterial activity against Pseudomonas aeruginosa ATCC 27853; format: functional
# [22] = test system: Pseudomonas aeruginosa; test: Antibacterial activity against Pseudomonas aeruginosa ATCC 27853 at 67 ug by disk diffusion method; format: functional, organism-based
# [23] = test system: Pseudomonas aeruginosa; test: Antibacterial activity against Pseudomonas aeruginosa ATCC 27853 at 270 ug by disk diffusion method; format: functional
# [24] = test system: Staphylococcus aureus; test: Antibacterial activity against Staphylococcus aureus ATCC 25923 at 270 ug by disk diffusion method; format: functional
# [25] = test system: Pseudomonas aeruginosa; test: Antibacterial activity against Pseudomonas aeruginosa ATCC 27853 at 135 ug by disk diffusion method; format: functional, organism-based
# [26] = test system: Staphylococcus aureus; test: Antibacterial activity against Staphylococcus aureus ATCC 25923 at 32 ug by disk diffusion method; format: functional, organism-based
# [27] = test system: Escherichia coli; test: Antibacterial activity against Escherichia coli ATCC 25922 at 256 ug by disk diffusion method; format: functional
# [28] = test system: Escherichia coli; test: Antibacterial activity against Escherichia coli ATCC 25922 at 128 ug by disk diffusion method; format: functional, organism-based
# [29] = test system: Escherichia coli; test: Antibacterial activity against Escherichia coli ATCC 25922 at 32 ug by disk diffusion method; format: functional, organism-based
# [30] = test system: Staphylococcus aureus; test: Antibacterial activity against Staphylococcus aureus ATCC 25923 at 256 ug by disk diffusion method; format: functional
# [31] = test system: Enterococcus faecalis; test: Antibacterial activity against Enterococcus faecalis ATCC 29212 at 32 ug by disk diffusion method; format: functional, organism-based
# [32] = test system: Pseudomonas aeruginosa; test: Antibacterial activity against Pseudomonas aeruginosa ATCC 27853 at 256 ug by disk diffusion method; format: functional, organism-based
# [33] = test system: Escherichia coli; test: Antibacterial activity against Escherichia coli ATCC 25922 at 65 ug by disk diffusion method; format: functional, organism-based
# [34] = test system: Enterococcus faecalis; test: Antibacterial activity against Enterococcus faecalis ATCC 29212 at 65 ug by disk diffusion method; format: functional, organism-based
# [35] = test system: Enterococcus faecalis; test: Antibacterial activity against Enterococcus faecalis ATCC 29212 at 256 ug by disk diffusion method; format: functional, organism-based
# [36] = test system: Pseudomonas aeruginosa; test: Antibacterial activity against Pseudomonas aeruginosa ATCC 27853 at 65 ug by disk diffusion method; format: functional, organism-based
# [37] = test system: Pseudomonas aeruginosa; test: Antibacterial activity against Pseudomonas aeruginosa ATCC 27853 at 32 ug by disk diffusion method; format: functional, organism-based
# [38] = test system: Enterococcus faecalis; test: Antibacterial activity against Enterococcus faecalis ATCC 29212 at 128 ug by disk diffusion method; format: functional, organism-based
# [39] = test system: Staphylococcus aureus; test: Antibacterial activity against Staphylococcus aureus ATCC 25923 at 128 ug by disk diffusion method; format: functional, organism-based
# [40] = test system: Pseudomonas aeruginosa; test: Antibacterial activity against Pseudomonas aeruginosa ATCC 27853 at 128 ug by disk diffusion method; format: functional, organism-based
# [41] = test system: Staphylococcus aureus; test: Antibacterial activity against Staphylococcus aureus ATCC 25923 at 65 ug by disk diffusion method; format: functional, organism-based
structure (smiles),measurement,setting,value
N=C(N)NCCc1cc2c(O)c(c1)Cc1cc(CCNC(=N)N)cc(c1O)Cc1cc(CCNC(=N)N)cc(c1O)Cc1cc(CCNC(=N)N)cc(c1O)C2.O=C(O)C(F)(F)F.O=C(O)C(F)(F)F.O=C(O)C(F)(F)F.O=C(O)C(F)(F)F,inhibition zone (IZ),[1],10 mm
same,MIC,[2],16 µg/mL and 13 µM
same,inhibition zone (IZ),[3],inactive
same,MIC,[4],16 µg/mL and 13 µM
same,inhibition zone (IZ),[5],11.2 mm
same,inhibition zone (IZ),[6],6.3 mm
same,MIC,[7],64 µg/mL and 51 µM
same,Selectivity index,[8],43
same,inhibition zone (IZ),[9],7.3 mm
same,IC50,[10],560 µM
same,Selectivity index,[11],11
same,inhibition zone (IZ),[12],inactive
same,inhibition zone (IZ),[13],8 mm
same,inhibition zone (IZ),[14],inactive
same,inhibition zone (IZ),[15],6.6 mm
same,Selectivity index,[16],43
same,Selectivity index,[17],43
same,inhibition zone (IZ),[18],9 mm
same,inhibition zone (IZ),[19],8.3 mm
same,inhibition zone (IZ),[20],9.3 mm
same,MIC,[21],16 µg/mL and 13 µM
same,inhibition zone (IZ),[22],inactive
same,inhibition zone (IZ),[23],7.8 mm
same,inhibition zone (IZ),[24],11 mm
same,inhibition zone (IZ),[25],inactive
N=C(N)NCCc1ccc(O)cc1.O=C(O)C(F)(F)F,inhibition zone (IZ),[26],inactive
same,inhibition zone (IZ),[27],7.6 mm
same,MIC,[2],512 µg/mL and 1750 µM
same,inhibition zone (IZ),[28],inactive
same,MIC,[4],512 µg/mL and 1750 µM
same,inhibition zone (IZ),[29],inactive
same,MIC,[7],≥ 512 µg/mL and 1750 µM
same,Selectivity index,[8],0.48
same,inhibition zone (IZ),[30],7.8 mm
same,IC50,[10],850 µM
same,Selectivity index,[11],<=0.48
same,inhibition zone (IZ),[31],inactive
same,inhibition zone (IZ),[32],inactive
same,inhibition zone (IZ),[33],inactive
same,inhibition zone (IZ),[34],inactive
same,inhibition zone (IZ),[35],inactive
same,inhibition zone (IZ),[36],inactive
same,Selectivity index,[16],0.48
same,Selectivity index,[17],0.48
same,MIC,[21],512 µg/mL and 1750 µM
same,inhibition zone (IZ),[37],inactive
same,inhibition zone (IZ),[38],inactive
same,inhibition zone (IZ),[39],inactive
same,inhibition zone (IZ),[40],inactive
same,inhibition zone (IZ),[41],inactive
